Each structure is given as a SMILES string. Entries after “also recorded” stand apart in the source; their conditions may differ. Where a name gives a salt, the structure may show the parent alone. Read-outs that look alike come from different tables or passages of the source.

One data set has as its system LNCaP cells. The experiment in a line: LNCaP prostate cancer cell growth (DAPI staining). In kind it is cell-based, human. Particulars: for Inhibition of LNCaP cell growth in culture: AR-dependent LNCaP cells; for inhibition at 0.3 µM: Homo sapiens, LNCaP, read-out: LNCaP growth inhibition at 300 nM. How it is done: (§1) For growth curves, cells were transferred to charcoal-stripped media three days before they were split and plated at a density of approximately 20,000 cells/well in 48 well plates, in quadruplicate. The assay was repeated three times. The following day, medium with the indicated drugs was added to the cells. Proliferation was determined by measuring the DNA content of the cells in each well. Each day, the cells were fixed in 100% cold methanol, followed by staining for 5 min at RT with 0.2 ng/mL 4′,6-diamidino-2-phenylindole (DAPI) in PBS. The cells were washed with PBS, then read on a fluorescence plate reader (FPR) using 365/439 excitation/emission wavelengths. A student's T test was used to determine significant differences among populations.

Data set [1] is described as follows: Toxicity studies, MTD determination. Particulars: in vivo. How it is done:
In DMSO/PBS formulation, with MTD single dose: IV: ˜1 mg/kg; PO (oral): not determined due to poor absorption; and IP: ˜5 mg/kg. With MTD daily dosing: IP: ˜1 mg/kg. In Beta cyclodextrin formulation: MTD single dose: IV: not determined; PO (oral); ˜200 mg/kg; IP: >10 mg/kg. In MTD daily dosing: IP: at least 5 mg/kg; PO: at least 100 mg/kg.

In a further data set the test system is other nuclear receptors. Nature of the data set: Specificity for AR versus other nuclear receptors. In kind it is cell-based. Particulars: P24 0.1, 0.3, 1 μM; P7 0.3, 1, 3 μM.
Another data set deals with AR target genes. The experiment in a line: Inhibition of AR activity in vivo (qRT-PCR of prostate tissue). Set-up: species or system Mice. The note with it: 5 mg/kg via osmotic pump for 4 weeks. How it is done:
Total RNA was isolated from homogenized prostate or tumor tissue using an RNAeasy kit (Qiagen). RNA was reverse-transcribed (MMLV-RT; Invitrogen), and the expression of androgen-regulated genes was assessed by qPCR using a StepOne Real Time PCR System (Applied Biosystems), using SYBR green (Invitrogen) as the detecting dye and Rox (Invitrogen) as the reference dye. Differences between treated (x) and no DHT control (y) samples were normalized to RPL19 transcript levels (i.e., androgen-unresponsive) and determined with the following calculation: (2[Ctxgene1−Ctygene1])/(2[CtxRPL19−CtyRPL19]).

A further data set has as its system 22Rv1 cells. The experiment in a line: 22Rv1 cell growth in culture. The format is cell-based, human. The note with it: androgen-independent, AR splice variant expressing 22Rv1 cells; tosylate. How it is done:
as §1

Data set [2] deals with enzalutamide (enz)-resistant LNCaP cells. Nature of the data set: Enzalutamide-resistant LNCaP cell growth in culture. The format is cell-based, human.
The nature of data set [3]: P24 microsomal analysis, human microsomes. In kind it is in vitro ADME. How it is done:
(§2) FIG. 16. P24 microsomal analysis.
(§3) As depicted in FIG. 16, the concentration of compound. P24 solution tested with incubation with microsomes.

Data set [4] can be described thus: P24 microsomal analysis, mouse microsomes. The format is in vitro ADME. How it is done:
as §2, §3

Data set [5] can be described thus: Further PK studies, single dose, DMSO/PBS or BCD formulation. The note with it: blood at 0.5, 2 and 24-hrs; for Drug level in blood after administration, BCD formulation: 25 mg/kg single dose; for Drug level in blood after administration, DMSO/PBS formulation: 1 mg/kg single dose.
From the text: Treatment: 1-2 mice with single dose and blood at 0.5, 2 and 24-hrs.
Data set [6] can be described thus: Solubility in solvents and formulations.
Setting [7] is: ip, Beta cyclodextrin formulation, IP, daily dosing, read-out: MTD daily dosing IP.
Setting [8] is: ip, Beta cyclodextrin formulation, IP, single dose, read-out: MTD single dose IP.
[9] abbreviates: ip, DMSO/PBS formulation, IP, daily dosing, read-out: MTD daily dosing IP.
[10] abbreviates: ip, DMSO/PBS formulation, IP, single dose, read-out: MTD single dose IP.
Setting [11] is: iv, DMSO/PBS formulation, IV, single dose, read-out: MTD single dose IV.
Where [12] appears, read: po, Beta cyclodextrin formulation, PO, daily dosing, read-out: MTD daily dosing PO.
[13] abbreviates: po, Beta cyclodextrin formulation, PO, single dose, read-out: MTD single dose PO (oral).
The mark [14] stands for this setting: 100 ng/ml P24, absence of NADPH.
Setting [15] is: 100 ng/ml P24, presence of NADPH.

On to `Cc1cccnc1-n1c(C)cc(/C=C/c2ccc3cc(N(C)C)ccc3[n+]2C)c1C` [P24, (E)-6-Dimethylamino-2-(2-(2,5-dimethyl-1-(3-methylpyridin-2-yl)-1H-pyrrol-3-yl)ethenyl)-1-methylquinolinium tosylate], for which the “Inhibition of LNCaP cell growth in culture” value in the data set with LNCaP cells (tosylate) is “inhibit the growth; also recorded: inhibited”. In the data set with LNCaP cells, the inhibition at 0.3 µM is 100%. The MTD in [1] (setting [7]) is not below 5 mg/kg; in data set [1] (setting [8]), more than 10 mg/kg; in data set [1] (setting [9]), approximately 1 mg/kg; in [1] (setting [10]), approximately 5 mg/kg; in data set [1] (setting [11]) it was approximately 1 mg/kg; in data set [1] (setting [12]) it was not below 100 mg/kg. The MTD in [1] (setting [13]) is approximately 200 mg/kg. In addition, the “Activity against other nuclear receptors” value with other nuclear receptors is recorded as “little activity”. Moreover, in the data set on AR target genes, the “Inhibition of AR target genes in prostate tissue (qRT-PCR)” value is given as “inhibition of AR target genes”. Further, the “Inhibition of 22Rv1 cell growth in culture” value in the data set with 22Rv1 cells was “inhibit the growth; also recorded: inhibited”. For the same compound, the “Inhibition of growth of enzalutamide-resistant LNCaP cells” value in data set [2] was “inhibit the growth”. Further, the “Breakdown in microsomes without NADPH (chemical stability)” value in data set [3] (setting [14]) and in data set [4] (setting [14]) was “lack of breakdown” each time. Further, the “Metabolism in microsomes, NADPH dependence” value in data set [3] (setting [15]) and in data set [4] (setting [15]) was “NADPH dependent” each time. Moreover, the “Drug level in blood after administration, BCD formulation” value in [5] is “significant spike”. Besides, the “Drug level in blood after administration, DMSO/PBS formulation” value in data set [5] is “almost no drug”.
As for `CNC(=O)c1ccc(N2C(=S)N(c3ccc(C#N)c(C(F)(F)F)c3)C(=O)C2(C)C)cc1F` [enzalutamide, reference compound], the “Inhibition of LNCaP cell growth in culture” value with LNCaP cells is given as “inhibited”.
As to `Cc1cc(/C=C/c2ccc3cc(N(C)C)ccc3[n+]2C)c(C)[nH]1.Cc1ccc(S(=O)(=O)[O-])cc1` [P7, (E)-6-Dimethylamino-2-(2-(2,5-dimethyl-1H-pyrrol-3-yl)ethenyl)-1-methylquinolinium tosylate], in the data set on LNCaP cells (tosylate), the “Inhibition of LNCaP cell growth in culture” value was “inhibit the growth; also recorded: inhibited”. Besides, the inhibition at 0.3 µM in the data set with LNCaP cells came to 100%. Further, the MTD was not below 5 mg/kg in data set [1] (setting [7]); more than 10 mg/kg in data set [1] (setting [8]); approximately 1 mg/kg in data set [1] (setting [9]); approximately 5 mg/kg in [1] (setting [10]); approximately 1 mg/kg in data set [1] (setting [11]); not below 100 mg/kg in data set [1] (setting [12]). In [1] (setting [13]), the MTD was approximately 200 mg/kg. In the data set with other nuclear receptors, the “Activity against other nuclear receptors” value is reported as “little activity”. In addition, the “Inhibition of 22Rv1 cell growth in culture” value in the data set on 22Rv1 cells is “inhibit the growth; also recorded: inhibited”. Also, the “Inhibition of growth of enzalutamide-resistant LNCaP cells” value in data set [2] is “inhibit the growth”. For the same compound, the solubility was approximately 10000 µg/mL in data set [6] (DMSO, organic solvent or mixture); less than 5000 µg/mL in data set [6] (acetonitrile, organic solvent or mixture); approximately 5000 µg/mL in [6] (beta cyclodextrin, aqueous with cosolvent or surfactant or cyclodextrin); less than 5000 µg/mL in data set [6] (buffer B (aqueous), aqueous buffer); approximately 5000 µg/mL in data set [6] (ethanol, organic solvent or mixture); approximately 5000 µg/mL in data set [6] (gamma cyclodextrin, aqueous with cosolvent or surfactant or cyclodextrin). Further, the “Drug level in blood after administration, BCD formulation” value in data set [5] is recorded as “more continuous peak”. In addition, in data set [5], the “Drug level in blood after administration, DMSO/PBS formulation” value is reported as “almost no drug”.

Values taken from patent publication US10428048B2, “Androgen receptor antagonists” (CITY OF HOPE, priority 2015, dated 2019).
